The target of experiment [1] is Shigella flexneri apyrase (ApiOne, SEQ ID NO: 1) Double mutant L66V/G63R (Shigella flexneri, UniProt Q59909, G63R/L66V). To be noted: read-out: Affinity (Km), ATP, 50 mM Tris-HCl pH 7.5, 37° C., 20 min, 500 ng enzyme.
Description: To this 200 μL of Ammonium Molybdate Ferrous Ammonium Sulphate (AMFAS) reagent was added. AMFAS reagent was prepared by mixing equal volumes of reagent A and reagent B, where reagent A comprises of 5% (w/v) ammonium molybdate in 5 N H2SO4 and reagent B contains 1% (w/v) ferrous ammonium sulphate in double-distilled water. The amount of inorganic phosphate formed (product of ATP/ADP hydrolysis) is colorimetrically measured at 630 nm using multi-mode spectrophotometer (Biotek instruments).
The kinetic curves were plotted and the Michaelis Menten constant (Km) was calculated using GraphPad Prism 5.0 software.
Experiment [2] addresses Shigella flexneri apyrase (ApiOne, SEQ ID NO: 1) ApiTwo mutant L66V (Shigella flexneri, UniProt Q59909, L66V). In words: Affinity towards ATP, L66V. Type of experiment: biochemical. Particulars: 50 mM Tris-HCl pH 7.5, 37° C., 20 min, 500 ng enzyme. The source says:
However, not all reactions successfully generated PCR products by agarose gel electrophoresis. The successful mutations were transformed into the expression host and proteins were expressed and purified to homogeneity by affinity chromatography.
Other substrates like 2-Glycerophosphate, Pyridoxal phosphate and phenyl phosphate were not hydrolysed by the mutants (Table 2 and FIG. 8A-B).
(§1) Respective colorimetric/fluorescence assays (mentioned above).

Experiment [3] has as its target T1, wild-type Shigella flexneri apyrase, SEQ ID NO: 1 (Shigella flexneri, UniProt Q59909).
T1 sequence (Q59909 26-246): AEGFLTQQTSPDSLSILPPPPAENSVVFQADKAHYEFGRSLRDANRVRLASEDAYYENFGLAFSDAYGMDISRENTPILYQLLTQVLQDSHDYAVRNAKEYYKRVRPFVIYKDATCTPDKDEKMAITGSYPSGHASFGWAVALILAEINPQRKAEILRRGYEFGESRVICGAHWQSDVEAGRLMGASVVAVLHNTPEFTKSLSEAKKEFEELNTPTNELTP
Description: ATP hydrolysis, Km for ATP (Example 2), wild type. Type of experiment: biochemical. Particulars: 50 mM Tris, pH 7.5, 37° C., 30 min, 700 ng enzyme. The procedure: A titrated series of ATP solutions from 100 mM to 0.01 mM in 50 mM Tris, pH 7.5 were prepared and incubated with 700 ng of Apyrase (mutant prepared in Example 1 and wild-type Shigella flexneri apyrase as control) for 30 minutes at 37° C. (100 μL reaction). After the incubation, 100 μL AMFAS reagent was added and OD was taken at 630 nm using multimode reader (Biotek instruments). The color formation is proportional to the amount of ATP degraded (dephosphorylated to ADP or AMP). […] Specific activity at 10 mM ATP was determined as 6.3 μmoles/min/mg for the mutant apyrase.

The subject of experiment [4] is EIEC apyrase variant H116L. In words: Affinity of ATP to EIEC H116L (Table 6). Type of experiment: biochemical.
Text: as §1

The target of experiment [5] is Shigella flexneri apyrase, mutant apyrase of Example 1, SEQ ID NO: 3 (S50N, F54V, G63R, L66V, N70Q, E77V, A791, D90T, S97T, L108M, Q113N, V120R, K124R, Y127Q, P (Shigella flexneri, UniProt Q59909, A167G/A79I/D90T/E243D/E77V/F162N/F223W/F234Y/F53V/G185A/G206R/G63R/I151L/K124R/K178R/L108M/L182F/L227S/L66V/N174Q/N219K/N70Q/P143R/Q113N/S50N/S97T/T239Q/V120R/V213A/W199Y/Y127Q)). In words: ATP hydrolysis, Km for ATP (Example 2), mutant. In kind it is biochemical. To be noted: mutant of Example 1; 50 mM Tris, pH 7.5, 37° C., 30 min, 700 ng enzyme. The procedure:
In order to improve the activity of apyrase and its tolerance to high salt conditions, the inventors mutated the apyrase gene randomly using an error prone PCR method starting from the wild-type Shigella flexneri apyrase DNA sequence (SEQ ID NO: 4) as template. The method incorporates repeated copying of the template at high MgCl2 concentration (5 mM) with Taq polymerase. After every fourth cycle, one fifth of the reaction mixture was transferred to fresh PCR tube and the same process was repeated 22 times to obtain a product that will have randomly mutated nucleotides which can be identified by sequencing. The mutated gene was cloned in pET21a vector. The mutated DNA sequence obtained is presented as SEQ ID NO: 2, containing a total of 31 mutations leading to amino-acid changes (see SEQ ID NO:3 compared to the wild-type amino-acid sequence of SEQ ID NO: 1).
A titrated series of ATP solutions from 100 mM to 0.01 mM in 50 mM Tris, pH 7.5 were prepared and incubated with 700 ng of Apyrase (mutant prepared in Example 1 and wild-type Shigella flexneri apyrase as control) for 30 minutes at 37° C. (100 μL reaction). After the incubation, 100 μL AMFAS reagent was added and OD was taken at 630 nm using multimode reader (Biotek instruments). […] Specific activity at 10 mM ATP was determined as 6.3 μmoles/min/mg for the mutant apyrase.

In the case of `Nc1ncnc2c1ncn2[C@@H]1O[C@H](COP(=O)(O)OP(=O)(O)OP(=O)(O)O)[C@@H](O)[C@H]1O` [ATP, Adenosine triphosphate], the Km in experiment [1] is 20.7 µM; in experiment [2] it was 18.5 µM; in experiment [3] it was 3.3 mM; in experiment [4], 24 µM; in experiment [5], 3.6 mM.
